Assay results as given in US20230027361A1, “METTL3 MODULATORS” (priority 2019, published 2023).
Like-named read-outs stand apart in the source and are kept apart here.

Assays:
PRMT5-MEP50 = PRMT5-MEP50 (Homo sapiens, UniProt O14744); test: PRMT5 Assay (PRMT5 biochemical assay)
Experimental: Assays were performed in a 25 μl-volume in 384-well V-bottom polypropylene microplates (Greiner Bio-One, cat. No. 781280) at ambient temperature. Optimized 1× assay buffer was 20 mM Tris-HCl pH 8.0, 1 mM DTT, […]. For compound screening PRMT5-MEP50 (final concentration, f.c.=2.5 nM) was added using a Multidrop Combi (ThermoFisher Scientific, Waltham, Mass.) and preincubated for 5 min. Reactions were started by adding 3′ biotinylated histone H4 peptide acetylated on serine 1 (Ac-[…]-Biotin) (f.c.=100 nM) and 3H-SAM (f.c.=250 nM) substrates. Reactions proceeded for 60 minutes and were quenched with excess non-radioactive SAM (f.c.=15 μM). The reactions were then transferred to streptavidin-coated flashplates and incubated for 2 hours at 25° C. Following two washing cycles with 0.1% Tween-20, the plates were sealed and read on a TopCount (PerkinElmer, Waltham, Mass.) plate-based scintillation counter. For determination of kinetic parameters, reaction times were optimized so that measurements were taken during the initial velocity phase of the reaction.

METTL3/METTL14 = METTL3/METTL14 (Homo sapiens, UniProt Q86U44); test: METTL3-14 Standard Enzyme Assay (METTL3 biochemical assay)
Experimental: Assays were performed in a 25 μl-volume in 384-well V-bottom polypropylene microplates (Greiner Bio-One, cat. No. 781280) at ambient temperature. Optimized 1× assay buffer was 20 mM HEPES pH 7.5, 50 mM KCl, 250 μM MgCl2, 1 mM DTT, 0.01% Tween, 0.01% BSG, 0.004 U/μl RNAseOUT (cat. No. 10777019, ThermoFisher Scientific, Waltham, Mass.). For compound screening METTL3/METTL14 (final concentration, f.c.=2.5 nM) was added using a Multidrop Combi (ThermoFisher Scientific, Waltham, Mass.) and preincubated for 5 min. Reactions were started by adding 3′ biotinylated RNA ([…]-biotin) (f.c.=100 nM) and 3H-SAM (f.c.=100 nM) substrates. Reactions proceeded for 30 minutes and were quenched with excess non-radioactive SAM (f.c.=15 μM). The reactions were then transferred to streptavidin-coated flashplates and incubated for 2 hours at 25° C. Following two washing cycles with 0.1% Tween-20, the plates were sealed and read on a TopCount (PerkinElmer, Waltham, Mass.) plate-based scintillation counter. For determination of kinetic parameters, reaction times were optimized so that measurements were taken during the initial velocity phase of the reaction.

METTL1/WDR4 = METTL1/WDR4 (Homo sapiens, UniProt Q9UBP6); test: METTL1 Assay (METTL1 biochemical assay)
Experimental: Assays were performed in a 25 μl-volume in 384-well V-bottom polypropylene microplates (Greiner Bio-One, cat. No. 781280) at ambient temperature. Optimized 1× assay buffer was 20 mM HEPES pH 7.5, 50 mM KCl, 250 μM MgCl2, 1 mM DTT, 0.01% Tween, 0.01% BSG, 0.004 U/μl RNAseOUT (cat. No. 10777019, ThermoFisher Scientific, Waltham, Mass.). For compound screening METTL1/WDR4 (final concentration, f.c.=6.25 nM) was added using a Multidrop Combi (ThermoFisher Scientific, Waltham, Mass.) and preincubated for 5 min. Reactions were started by adding 3′ biotinylated RNA ([…]-biotin) (f.c.=25 nM) and 3H-SAM (f.c.=60 nM) substrates. Reactions proceeded for 20 minutes and were quenched with excess non-radioactive SAM (f.c.=15 μM). The reactions were then transferred to streptavidin-coated flashplates and incubated for 2 hours at 25° C. Following two washing cycles with 0.1% Tween-20, the plates were sealed and read on a TopCount (PerkinElmer, Waltham, Mass.) plate-based scintillation counter. For determination of kinetic parameters, reaction times were optimized so that measurements were taken during the initial velocity phase of the reaction.

[1] = PRMT5 biochemical assay; read-out: PRMT5 IC50
[2] = METTL3 biochemical assay; read-out: METTL3 IC50
[3] = read-out: METTL1 IC50; METTL1 biochemical assay
[4] = read-out: PRMT5 IC50; PRMT5 biochemical assay
[5] = read-out: METTL3 IC50; METTL3 biochemical assay
[6] = METTL1 biochemical assay; read-out: METTL1 IC50

Sequence of METTL1/WDR4 (Q9UBP6 whole entry, species assumed): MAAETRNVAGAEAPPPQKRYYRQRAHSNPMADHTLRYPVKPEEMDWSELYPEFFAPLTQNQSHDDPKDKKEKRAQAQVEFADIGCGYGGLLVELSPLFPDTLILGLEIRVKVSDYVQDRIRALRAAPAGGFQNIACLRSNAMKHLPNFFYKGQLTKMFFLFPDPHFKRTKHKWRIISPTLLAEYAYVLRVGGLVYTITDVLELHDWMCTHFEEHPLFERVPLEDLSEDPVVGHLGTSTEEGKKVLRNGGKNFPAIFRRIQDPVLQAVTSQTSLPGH
Sequence of METTL1/WDR4 (P57081 whole entry partner, species assumed): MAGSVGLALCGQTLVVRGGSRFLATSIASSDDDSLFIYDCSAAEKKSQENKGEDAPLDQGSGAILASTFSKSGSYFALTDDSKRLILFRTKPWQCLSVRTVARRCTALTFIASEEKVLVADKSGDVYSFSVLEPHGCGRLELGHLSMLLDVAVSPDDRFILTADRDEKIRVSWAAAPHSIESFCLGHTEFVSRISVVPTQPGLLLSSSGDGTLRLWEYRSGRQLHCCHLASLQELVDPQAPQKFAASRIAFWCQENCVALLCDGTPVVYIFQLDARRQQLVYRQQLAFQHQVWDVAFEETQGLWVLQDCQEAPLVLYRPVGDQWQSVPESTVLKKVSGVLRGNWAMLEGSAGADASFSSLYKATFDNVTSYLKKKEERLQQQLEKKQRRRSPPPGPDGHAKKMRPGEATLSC
Sequence of PRMT5-MEP50 (O14744 whole entry): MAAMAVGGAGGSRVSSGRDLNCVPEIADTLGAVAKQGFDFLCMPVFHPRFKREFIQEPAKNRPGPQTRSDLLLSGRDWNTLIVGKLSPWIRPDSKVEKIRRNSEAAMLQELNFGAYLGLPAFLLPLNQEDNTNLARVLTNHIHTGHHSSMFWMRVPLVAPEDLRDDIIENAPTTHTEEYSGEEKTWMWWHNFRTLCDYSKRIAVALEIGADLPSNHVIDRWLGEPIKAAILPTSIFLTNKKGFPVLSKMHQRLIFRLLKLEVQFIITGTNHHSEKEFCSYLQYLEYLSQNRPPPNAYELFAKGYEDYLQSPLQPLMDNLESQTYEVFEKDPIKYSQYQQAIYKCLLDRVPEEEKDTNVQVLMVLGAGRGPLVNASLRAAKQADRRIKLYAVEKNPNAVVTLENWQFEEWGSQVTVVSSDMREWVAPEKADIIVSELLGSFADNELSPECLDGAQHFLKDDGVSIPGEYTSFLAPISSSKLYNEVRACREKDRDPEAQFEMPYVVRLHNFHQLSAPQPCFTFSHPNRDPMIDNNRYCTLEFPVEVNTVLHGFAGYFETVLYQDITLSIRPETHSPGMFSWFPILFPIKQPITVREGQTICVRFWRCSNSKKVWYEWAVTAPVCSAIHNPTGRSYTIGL
Sequence of PRMT5-MEP50 (Q9BQA1 whole entry partner): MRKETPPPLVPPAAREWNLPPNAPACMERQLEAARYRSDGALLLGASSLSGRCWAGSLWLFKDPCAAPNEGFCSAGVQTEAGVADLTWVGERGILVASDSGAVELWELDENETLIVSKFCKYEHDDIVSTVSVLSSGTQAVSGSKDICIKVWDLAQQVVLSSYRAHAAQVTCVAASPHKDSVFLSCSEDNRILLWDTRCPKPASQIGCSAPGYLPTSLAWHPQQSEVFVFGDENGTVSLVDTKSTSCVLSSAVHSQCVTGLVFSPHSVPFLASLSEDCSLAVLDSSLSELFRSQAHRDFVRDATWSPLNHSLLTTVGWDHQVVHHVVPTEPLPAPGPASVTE
Sequence of METTL3/METTL14 (Q86U44 whole entry, species assumed): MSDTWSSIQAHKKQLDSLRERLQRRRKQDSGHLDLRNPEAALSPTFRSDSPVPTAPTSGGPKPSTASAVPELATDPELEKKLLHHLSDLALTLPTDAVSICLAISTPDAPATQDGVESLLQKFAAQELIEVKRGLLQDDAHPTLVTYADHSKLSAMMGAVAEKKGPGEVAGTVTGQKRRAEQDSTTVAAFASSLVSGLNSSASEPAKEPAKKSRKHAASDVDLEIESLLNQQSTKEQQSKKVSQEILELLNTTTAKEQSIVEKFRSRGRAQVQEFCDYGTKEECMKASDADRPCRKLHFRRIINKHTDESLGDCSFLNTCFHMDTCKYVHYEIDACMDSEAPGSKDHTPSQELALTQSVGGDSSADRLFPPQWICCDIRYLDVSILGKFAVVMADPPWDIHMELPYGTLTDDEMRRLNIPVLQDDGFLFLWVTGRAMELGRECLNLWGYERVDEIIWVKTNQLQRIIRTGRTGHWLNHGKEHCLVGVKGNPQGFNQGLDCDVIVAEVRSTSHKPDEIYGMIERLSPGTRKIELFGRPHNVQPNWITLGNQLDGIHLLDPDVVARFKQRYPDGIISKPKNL
Sequence of METTL3/METTL14 (Q9HCE5 whole entry partner, species assumed): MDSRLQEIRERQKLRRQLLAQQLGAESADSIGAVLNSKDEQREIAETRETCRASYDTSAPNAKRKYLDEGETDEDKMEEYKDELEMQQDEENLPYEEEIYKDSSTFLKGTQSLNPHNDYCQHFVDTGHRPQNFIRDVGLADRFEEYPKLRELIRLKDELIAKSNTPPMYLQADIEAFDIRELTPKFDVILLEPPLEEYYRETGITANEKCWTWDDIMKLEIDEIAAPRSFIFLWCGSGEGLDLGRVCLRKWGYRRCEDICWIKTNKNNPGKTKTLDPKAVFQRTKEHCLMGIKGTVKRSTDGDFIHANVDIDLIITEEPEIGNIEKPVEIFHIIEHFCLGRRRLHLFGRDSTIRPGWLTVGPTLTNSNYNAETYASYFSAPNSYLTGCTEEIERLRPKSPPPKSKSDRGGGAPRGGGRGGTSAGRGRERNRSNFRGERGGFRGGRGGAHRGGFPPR

SMILES	IC50 (PRMT5-MEP50; [1]) [µM]	IC50 (METTL3/METTL14; [2]) [µM]	IC50 (METTL1/WDR4; [3]) [µM]	IC50 (PRMT5-MEP50; [4]) [µM]	IC50 (METTL3/METTL14; [5]) [µM]	IC50 (METTL1/WDR4; [6]) [µM]
CC(C)Nc1ccc2ccc(CC[C@H]3C[C@@H](n4ccc5c(N)ncnc54)[C@H](O)[C@@H]3O)cc2n1 [I-116]	< 0.01	0.01 to 0.1	> 1			
Nc1ncnc2c1ccn2[C@@H]1C[C@H](CCc2cccc(=O)[nH]2)[C@@H](O)[C@H]1O [I-113]	0.1 to 1	> 1	> 1			
Nc1ncnc2c1ccn2[C@@H]1C[C@H](CCc2ccc3scnc3c2)[C@@H](O)[C@H]1O [I-104]	< 0.01	> 1	> 1			
Nc1ncnc2c1ccn2[C@@H]1C[C@H](CCc2cccc(NC(=O)C3CC3)c2)[C@@H](O)[C@H]1O [I-96]	0.1 to 1	> 1	> 1			
Nc1ncnc2c1ccn2[C@@H]1C[C@H](CCc2ccc3c(OCC4CC4)ccnc3c2)[C@@H](O)[C@H]1O [I-85]	< 0.01	> 1	> 1			
Nc1ncnc2c1ccn2[C@@H]1C[C@H](CCc2ccc3cc[nH]c3c2)[C@@H](O)[C@H]1O [I-101]	0.1 to 1	> 1	> 1			
CNc1ccc2ccc(OC[C@H]3O[C@@H](n4cnc5c(N)ncnc54)[C@H](O)[C@@H]3O)cc2n1 [I-76]	< 0.01	0.01 to 0.1	> 1			
O[C@@H]1[C@@H](CCc2ccc3[nH]ncc3c2)C[C@@H](n2ccc3c(NCCc4ccccc4)ncnc32)[C@@H]1O [I-89]	0.1 to 1	> 1	> 1			
CNc1ccc2cc(F)c(CC[C@H]3C[C@@H](n4ccc5c(N)ncnc54)[C@H](O)[C@@H]3O)cc2n1 [I-87]	< 0.01	0.01 to 0.1	> 1			
CCCC(=O)c1cn([C@@H]2O[C@H](COc3ccc4ccc(NC)nc4c3)[C@@H](O)[C@@H]2F)c2ncnc(N)c12 [I-146]				> 1	0.01 to 0.1	> 1
Nc1ncnc2c1ccn2[C@@H]1C[C@H](CCc2ccc3cn[nH]c3c2)[C@@H](O)[C@H]1O [I-103]	0.01 to 0.1	> 1	> 1			
CCCc1cn([C@@H]2C[C@H](CCc3ccc4ccc(N)nc4c3)[C@@H](O)[C@H]2O)c2ncnc(N)c12 [I-62]	< 0.01	0.1 to 1	> 1			
CNc1ccc2ccc(OC[C@H]3O[C@@H](n4cc(-c5cc(C)n(C)n5)c5c(N)ncnc54)[C@@H](F)[C@@H]3O)cc2n1 [I-147]				> 1	0.01 to 0.1	> 1
Cn1cc(-c2cn([C@@H]3C[C@H](CCc4ccc5ccc(N)nc5c4)[C@@H](O)[C@H]3O)c3ncnc(N)c23)cn1 [I-63]				< 0.01	0.1 to 1	> 1
Nc1ccc2ccc(CC[C@H]3C[C@@H](n4ccc5c(N)ncnc54)[C@H](O)[C@@H]3O)cc2n1 [I-138]	< 0.01	0.1 to 1	> 1			
CNc1ccc2cc(CC[C@H]3C[C@@H](n4cc(C)c5c(N)ncnc54)[C@H](O)[C@@H]3O)ccc2n1 [I-64]	0.01 to 0.1	0.1 to 1	> 1			

SMILES	IC50 (PRMT5-MEP50; [1]) [µM]	IC50 (METTL3/METTL14; [2]) [µM]	IC50 (METTL1/WDR4; [3]) [µM]	IC50 (PRMT5-MEP50; [4]) [µM]	IC50 (METTL3/METTL14; [5]) [µM]	IC50 (METTL1/WDR4; [6]) [µM]
Nc1ncnc2c1ccn2[C@@H]1C[C@H](CCc2ccc3[nH]cnc3c2)[C@@H](O)[C@H]1O [I-88]	< 0.01	> 1	> 1			
CNc1ccc2ccc(CC[C@H]3C[C@@H](n4cc(C5CCOCC5)c5c(N)ncnc54)[C@H](O)[C@@H]3O)cc2n1 [I-58]	< 0.01	0.01 to 0.1	> 1			
CNc1ccc2ccc(OC[C@H]3O[C@@H](n4cc(C)c5c(N)ncnc54)[C@H](O)[C@@H]3O)cc2n1 [I-22]	0.1 to 1	> 1	> 1			
Cc1cc2c(N)ncnc2n1[C@@H]1C[C@H](CCc2ccc3nc(N)ccc3c2)[C@@H](O)[C@H]1O [I-57]	0.01 to 0.1	> 1	> 1			
Nc1ncnc2c1ccn2[C@@H]1C[C@H](CCc2ccc3[nH]ccc3c2)[C@@H](O)[C@H]1O [I-92]	0.1 to 1	> 1	> 1			
Nc1ccc2ccc(OC[C@H]3O[C@H](n4ccc5c(N)ncnc54)[C@H](O)[C@@H]3O)cc2n1 [I-79]	0.1 to 1	> 1	> 1			
CNc1ncnc2c1ccn2[C@@H]1C[C@H](CCc2ccc3ccc(N)nc3c2)[C@@H](O)[C@H]1O [I-129]	< 0.01	> 1	> 1			
Nc1ncnc2c1ccn2[C@@H]1C[C@H](CCc2cnc3cccnc3c2)[C@@H](O)[C@H]1O [I-126]	< 0.01	> 1	> 1			
Nc1ccc2ccc(CC[C@H]3C[C@@H](n4ccc5c(N)ncnc54)[C@H](O)[C@@H]3O)cc2c1 [I-108]	0.1 to 1	> 1	> 1			
Cc1cc2c(NCCc3ccccc3)ncnc2n1[C@@H]1C[C@H](CCc2ccc3ccc(N)nc3c2)[C@@H](O)[C@H]1O [I-61]	< 0.01	> 1	> 1			
Nc1ncnc2c1ccn2[C@@H]1C[C@H](CCc2ccc3cccnc3n2)[C@@H](O)[C@H]1O [I-128]	< 0.01	> 1	> 1			
Nc1ncnc2c1ccn2[C@@H]1C[C@H](CCc2ccc3ccc(Nc4ccccc4)nc3c2)[C@@H](O)[C@H]1O [I-122]	< 0.01	> 1	> 1			
Nc1ncnc2c1ccn2[C@@H]1C[C@H](CCc2ccc3[nH]c(=O)[nH]c3c2)[C@@H](O)[C@H]1O [I-93]	0.01 to 0.1	> 1	> 1			
Nc1ncnc2c1ccn2[C@@H]1C[C@H](CCc2ccc3[nH]ncc3c2)[C@@H](O)[C@H]1O [I-106]	0.1 to 1	> 1	> 1			
COc1cccc(CC[C@H]2C[C@@H](n3ccc4c(N)ncnc43)[C@H](O)[C@@H]2O)n1 [I-114]	> 1	> 1	> 1			
